# Reference: PubChem BioAssay AID977613 (Broad Institute, 2014)
# Calls of active or inactive are those of the source. The rule behind the calls is not given here.
# System: Broad 7084-01 inhibitor HTS, set 2
# Experiment: single-concentration hits, screen 7084 set 2 (AID 977613);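 note: host cells are infected with parasite promastigotes that become internalized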
row,SMILES,active concentration
1,O=C(c1ccccn1)N1CC(=O)N2[C@H](CO)[C@H](c3ccc(C4=CCCC4)cc3)[C@@H]2C1,> 10 µM (inactive)
2,COc1ccc(-c2ccccc2[C@H]2[C@@H](C#N)N(C(=O)NC3CCCCC3)[C@H]2CO)cc1,> 10 µM (inactive)
3,O=C(Nc1ccccc1F)N1CC(=O)N2[C@@H](CO)[C@H](c3ccc(-c4cccnc4)cc3)[C@@H]2C1,> 10 µM (inactive)
4,COc1ccccc1C(=O)Nc1ccc2c(c1)C(=O)N(C)[C@@H]1CC[C@@H](CC(=O)NCCc3ccncc3)O[C@H]1CO2,> 10 µM (inactive)
5,CCC(=O)N1CC2(C1)[C@H](c1ccc(-c3ccc(C)cc3)cc1)[C@@H](CO)N2S(=O)(=O)CC,> 10 µM (inactive)
6,N#C[C@@H]1[C@H](c2ccccc2C2=CCCCC2)[C@H](CO)N1S(=O)(=O)c1cccc(F)c1,> 10 µM (inactive)
7,COC(=O)[C@H]1[C@H](CO)[C@H]2Cn3c(ccc(-c4ccccc4OC)c3=O)[C@H]2N1C(=O)c1cnccn1,> 10 µM (inactive)
8,CN(C)C(=O)C[C@H]1CC[C@H]2[C@@H](COC[C@H](O)CN2CC2CC2)O1,> 10 µM (inactive)
9,CCc1csc(N2[C@H](C#N)[C@H](c3ccccc3-c3ccc(F)cc3)[C@H]2CO)n1,> 10 µM (inactive)
10,CN1CCCCN2[C@H](CO)[C@@H](c3ccc(-c4ccc(F)cc4)cc3)[C@@H]2C1,> 10 µM (inactive)
11,C/C=C/c1ccc([C@H]2[C@H](CO)N(S(=O)(=O)Cc3ccccc3)C23CN(C(=O)C2CCCC2)C3)cc1,> 10 µM (inactive)
12,O=C(C1CCC1)N1CC2(C1)[C@H](c1ccccc1)[C@H](CO)N2C(=O)c1ccccn1,> 10 µM (inactive)
13,O=C(c1ccccn1)N1C[C@H]2[C@@H](c3ccccc31)[C@@H](CO)N2C(=O)Nc1ccccc1F,> 10 µM (inactive)
14,CC=Cc1ccc2n(c1=O)C[C@@H]1[C@@H](CO)[C@H](C(=O)NC3CCC3)[C@H]2N1S(=O)(=O)c1cn(C)cn1 (mixture of isomers),> 10 µM (inactive)
15,CC(C)NC(=O)N1[C@H](CO)[C@@H](c2ccccc2-c2ccc(F)cc2)[C@@H]1C#N,> 10 µM (inactive)
16,C[C@H](O)C#Cc1ccc([C@H]2[C@@H](CO)N3CCCCN(C(=O)c4ccc5c(c4)OCO5)C[C@H]23)cc1,> 10 µM (inactive)
17,O=C(c1ccccn1)N1C[C@@H]2[C@H](c3ccccc31)[C@H](CO)N2C(=O)Nc1ccccc1F,> 10 µM (inactive)
18,C/C=C/c1ccc([C@@H]2[C@H]3CN(Cc4ccc(F)cc4)CC(=O)N3[C@H]2CO)cc1,> 10 µM (inactive)
19,O=C(C[C@H]1CC[C@H]2[C@@H](COC[C@H](O)CN2C(=O)c2cccnc2)O1)NCc1ccccc1,> 10 µM (inactive)
20,O=C(CC1CC1)N1CC(=O)N2[C@H](CO)[C@H](c3ccc(C#Cc4cccc(F)c4)cc3)[C@H]2C1,> 10 µM (inactive)
21,O=C(C[C@@H]1CC[C@H]2[C@@H](COC[C@@H](O)CN2C(=O)Nc2ccc(C(F)(F)F)cc2)O1)NCC1CC1,> 10 µM (inactive)
22,O=C(Nc1ccccc1)N1CC(=O)N2[C@H](C1)[C@@H](c1ccc(C#CC3CCCCC3)cc1)[C@@H]2CO,> 10 µM (inactive)
23,O=C(C1CCOCC1)N1[C@@H](CO)[C@@H](c2ccccc2)C12CN(Cc1cccc(Cl)c1)C2,> 10 µM (inactive)
24,C/C=C/c1ccc([C@H]2[C@@H](CO)N3C(=O)CN(C(=O)c4ccncc4)C[C@@H]23)cc1,> 10 µM (inactive)
25,Cc1ccccc1-c1ccc([C@@H]2[C@@H](CO)N3CCCCN(S(=O)(=O)Cc4ccccc4)C[C@H]23)cc1,> 10 µM (inactive)
26,O=C(NCCc1ccncc1)[C@H]1[C@H](CO)[C@H]2Cn3c(ccc(-c4ccccc4)c3=O)[C@H]2N1C(=O)C1CC1,> 10 µM (inactive)
27,CN1C(=O)c2cc(NC(=O)Cc3cccs3)ccc2OC[C@@H]2O[C@@H](CC(=O)N[C@H]3CCN(Cc4ccccc4)C3)CC[C@H]21,> 10 µM (inactive)
